According to the supplement of paper PMC10307832:

Tests used:
Experiment in all cases: relative viability (nuclei count vs DMSO), 5 days (fraction); higher = more cells survive
Ispinesib + Tozasertib = compound: Cc1ccc(C(=O)N(CCCN)[C@@H](c2nc3cc(Cl)ccc3c(=O)n2Cc2ccccc2)C(C)C)cc1 [Ispinesib] + Cc1cc(Nc2cc(N3CCN(C)CC3)nc(Sc3ccc(NC(=O)C4CC4)cc3)n2)n[nH]1 [Tozasertib] (partner 0.1 µM)
In short: (§1)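 Lung cancer cell lines were pin-tool dosed in 1536-well plates on the day after seeding, with either a lone drug or a fixed anchor-drug dose plus five library-drug doses (not always all listed) in √10 steps. Nuclei were counted on 4× images after 5 days. Relative viability is the ratio of treated-well to vehicle-well nuclei counts, with each value a median of duplicate plates.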

Linsitinib + Lapatinib = compound: C[C@]1(O)C[C@@H](c2nc(-c3ccc4ccc(-c5ccccc5)nc4c3)c3c(N)nccn32)C1 [Linsitinib] + CS(=O)(=O)CCNCc1ccc(-c2ccc3ncnc(Nc4ccc(OCc5cccc(F)c5)c(Cl)c4)c3c2)o1 [Lapatinib] (partner 2 µM)
In short: as §1

Linsitinib + Olaparib = compound: C[C@]1(O)C[C@@H](c2nc(-c3ccc4ccc(-c5ccccc5)nc4c3)c3c(N)nccn32)C1 [Linsitinib] + O=C(c1cc(Cc2n[nH]c(=O)c3ccccc23)ccc1F)N1CCN(C(=O)C2CC2)CC1 [Olaparib] (partner 8 µM)
In short: as §1

Ispinesib + Pictilisib = compound: Cc1ccc(C(=O)N(CCCN)[C@@H](c2nc3cc(Cl)ccc3c(=O)n2Cc2ccccc2)C(C)C)cc1 [Ispinesib] + CS(=O)(=O)N1CCN(Cc2cc3nc(-c4cccc5[nH]ncc45)nc(N4CCOCC4)c3s2)CC1 [Pictilisib] (partner 1 µM)
In short: as §1

| Cell Line | relative viability (Ispinesib + Tozasertib; first compound 0.001 µM) | relative viability (Ispinesib + Tozasertib; first compound 0.003162 µM) | relative viability (Ispinesib + Tozasertib; first compound 0.01 µM) | relative viability (Ispinesib + Tozasertib; first compound 0.03162 µM) | relative viability (Ispinesib + Tozasertib; first compound 0.1 µM) | relative viability (Linsitinib + Lapatinib; first compound 0.01 µM) | relative viability (Linsitinib + Lapatinib; first compound 0.03162 µM) | relative viability (Linsitinib + Lapatinib; first compound 0.1 µM) | relative viability (Linsitinib + Lapatinib; first compound 0.3162 µM) | relative viability (Linsitinib + Lapatinib; first compound 1 µM) | relative viability (Linsitinib + Olaparib; first compound 0.01 µM) | relative viability (Linsitinib + Olaparib; first compound 0.03162 µM) | relative viability (Linsitinib + Olaparib; first compound 0.1 µM) | relative viability (Linsitinib + Olaparib; first compound 0.3162 µM) | relative viability (Linsitinib + Olaparib; first compound 1 µM) | relative viability (Ispinesib + Pictilisib; first compound 0.001 µM) | relative viability (Ispinesib + Pictilisib; first compound 0.003162 µM) | relative viability (Ispinesib + Pictilisib; first compound 0.01 µM) | relative viability (Ispinesib + Pictilisib; first compound 0.03162 µM) | relative viability (Ispinesib + Pictilisib; first compound 0.1 µM) |
| --- | --- | --- | --- | --- | --- | --- | --- | --- | --- | --- | --- | --- | --- | --- | --- | --- | --- | --- | --- | --- |
| ABC-1 | 0.197 | 0.174 | 0.21 | 0.182 | 0.184 | 1.13 | 1.5 | 1.32 | 1.34 | 1.21 | 0.859 | 1.04 | 0.785 | 1.09 | 0.626 | 0.656 | 0.678 | 0.692 | 0.301 | 0.339 |
| NCI-H460 | 0.4 | 0.577 | 0.503 | 0.417 | 0.0671 | 1 | 0.784 | 1.03 | 0.699 | 0.868 | 0.423 | 0.273 | 0.421 | – | 0.332 | 0.415 | 0.425 | 0.449 | 0.229 | 0.0764 |
| NCI-H1395 | 0.778 | 0.874 | 0.808 | 0.58 | 0.404 | 1.08 | 0.803 | 1.12 | 0.83 | 0.906 | 0.451 | – | 0.441 | 0.454 | 0.444 | 0.604 | 0.663 | 0.63 | 0.368 | 0.383 |
| NCI-H23 | 0.428 | 0.414 | 0.74 | 0.33 | 0.272 | 1.19 | 0.904 | 1.04 | 0.21 | 0.587 | 0.33 | 0.317 | 0.29 | 0.218 | 0.182 | 0.441 | 0.479 | 0.557 | 0.251 | 0.189 |
| LOU-NH91 | 0.677 | 0.638 | 0.76 | 0.584 | 0.347 | 0.698 | 0.655 | 0.706 | 0.741 | 0.579 | 0.911 | 0.841 | 0.941 | 0.857 | 0.903 | 0.482 | 0.54 | 0.508 | 0.427 | 0.256 |
| NCI-H2009 | 0.788 | 0.837 | 0.786 | 0.706 | 0.489 | 0.945 | 0.878 | 0.997 | 0.148 | 0.963 | 0.652 | 0.672 | 0.744 | 0.533 | 0.695 | 0.782 | 0.804 | 0.58 | 0.0875 | 0.173 |
| NCI-H358 | 0.1 | 0.101 | 0.0892 | 0.116 | 0.0906 | 0.423 | 0.388 | 0.388 | 0.366 | 0.303 | 0.585 | 0.64 | 0.602 | 0.47 | 0.333 | 0.298 | 0.359 | 0.377 | 0.227 | 0.245 |
| NCI-H2126 | 0.813 | 0.913 | 0.944 | 0.644 | 0.449 | 0.774 | 0.754 | 0.704 | 0.392 | 0.455 | 0.962 | 0.957 | 0.934 | 0.779 | 0.862 | 0.505 | 0.56 | 0.563 | 0.476 | 0.39 |
